Assay results taken from PubChem BioAssay AID330 (DTP/NCI, 2004).
Values joined by “and” are separate entries in the source; they are usually repeats but may differ in a detail not shown here. Equal values may be shown once. Inconclusive results and toxic doses are left out.

Test system: P388 leukemia ip, CD2F1 mice, survival T/C
Experiment: NCI In Vivo Anticancer Drug Screen. Data for tumor model P388 Leukemia (intraperitoneal) in CD2F1 (CDF1) mice
Conditions: endpoint: median survival time, higher = longer survival
Outline: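 Mice carrying the transplanted tumor received test compound or vehicle. Survival was recorded in each group, and the value is the treated-group measurement divided by that of the vehicle-treated control group.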

[1] = dose: 50.0 mg/kg/injection, schedule: Q01DX009 (ip), vehicle: saline
[2] = dose: 100.0 mg/kg/injection, schedule: Q01DX009 (ip), vehicle: saline
[3] = dose: 50.0 mg/kg/injection, schedule: Q01DX005 (ip), vehicle: Klucel (hydroxypropylcellulose) (HPC)
[4] = dose: 100.0 mg/kg/injection, schedule: Q01DX005 (ip), vehicle: Klucel (hydroxypropylcellulose) (HPC)
[5] = dose: 25.0 mg/kg/injection, schedule: Q01DX005 (ip), vehicle: Klucel (hydroxypropylcellulose) (HPC)
[6] = dose: 50.0 mg/kg/injection, schedule: Q01DX009 (ip), vehicle: Klucel (hydroxypropylcellulose) (HPC)
[7] = dose: 12.5 mg/kg/injection, schedule: Q01DX009 (ip), vehicle: Klucel (hydroxypropylcellulose) (HPC)
[8] = dose: 25.0 mg/kg/injection, schedule: Q01DX009 (ip), vehicle: Klucel (hydroxypropylcellulose) (HPC)
[9] = dose: 50.0 mg/kg/injection, schedule: Q01DX005 (ip), vehicle: saline
[10] = dose: 100.0 mg/kg/injection, schedule: Q01DX005 (ip), vehicle: saline
[11] = dose: 200.0 mg/kg/injection, schedule: Q01DX005 (ip), vehicle: saline

`CCC/C=C/C=C\C(=O)O[C@@H]1[C@@H](C)[C@]2(O)[C@@H]3C=C(C)C(=O)[C@H]3CC(COC(C)=O)=C[C@H]2[C@@H]2C(C)(C)[C@]12OC(C)=O` was tested, and the T/C (dose: 0.38 mg/kg/injection, schedule: Q01DX005 (ip), vehicle: saline + alcohol) was 123 % of control and 92 % of control, the T/C (dose: 0.38 mg/kg/injection, schedule: Q01DX005 (ip), vehicle: saline with Tween-80) was 100 % of control and the T/C (dose: 0.75 mg/kg/injection, schedule: Q01DX005 (ip), vehicle: saline with Tween-80) was 105 % of control. For the same compound, the T/C (dose: 1.5 mg/kg/injection, schedule: Q01DX005 (ip), vehicle: saline with Tween-80) was 103 % of control and the T/C (dose: 3.0 mg/kg/injection, schedule: Q01DX005 (ip), vehicle: saline with Tween-80) was 117 % of control.
With `C/C(=N\O)c1cc(/C(C)=N/O)cc(/C(C)=N/O)c1` the T/C [1] was 108 % of control and the T/C [2] was 92 % of control.
`CCc1cc(C(=O)OC)c(=O)n2c1-c1[nH]c3ccccc3c1CC2` was tested, and the T/C [3] was 94 % of control, the T/C [4] was 95 % of control and the T/C (dose: 200.0 mg/kg/injection, schedule: Q01DX005 (ip), vehicle: Klucel (hydroxypropylcellulose) (HPC)) was 89 % of control.
For `COc1cccc2c1C(=O)c1c(O)c3c(c(O)c1C2=O)C[C@@](O)(C(=O)CO)C[C@@H]3OC1CC(OC(C)=O)C(OC(C)=O)C(C)O1` (stereo partly specified), the T/C (dose: 3.13 mg/kg/injection, schedule: Q04DX003 (ip), vehicle: distilled water + Tween-80) was 99 % of control and 123 % of control, the T/C (dose: 6.25 mg/kg/injection, schedule: Q04DX003 (ip), vehicle: distilled water + Tween-80) was 123 % of control and the T/C (dose: 12.5 mg/kg/injection, schedule: Q04DX003 (ip), vehicle: distilled water + Tween-80) was 163 % of control. The T/C (dose: 25.0 mg/kg/injection, schedule: Q04DX003 (ip), vehicle: distilled water + Tween-80) was 185 % of control and 192 % of control and the T/C (dose: 50.0 mg/kg/injection, schedule: Q04DX003 (ip), vehicle: distilled water + Tween-80) was 211 % of control and 269 % of control.
`CN(C)CCn1nc2n(c(=O)c1=O)CC(=O)N(C)c1ccc(Cl)cc1-2` was tested, and the T/C (dose: 100.0 mg/kg/injection, schedule: Q01DX001 (ip), vehicle: Klucel (hydroxypropylcellulose) (HPC)) was 100 % of control, the T/C (dose: 200.0 mg/kg/injection, schedule: Q01DX001 (ip), vehicle: Klucel (hydroxypropylcellulose) (HPC)) was 101 % of control and the T/C (dose: 400.0 mg/kg/injection, schedule: Q01DX001 (ip), vehicle: Klucel (hydroxypropylcellulose) (HPC)) was 96 % of control.
With `Cc1ccc(C2=CSC3=NCCN23)cc1Cl` the T/C (dose: 12.5 mg/kg/injection, schedule: Q01DX005 (ip), vehicle: Klucel (hydroxypropylcellulose) (HPC)) was 99 % of control, the T/C [5] was 101 % of control and the T/C [3] was 107 % of control.
In the case of `CC1=NN(C(C)(C)C)[Si](C)(C)C1`, the T/C [5] was 96 % of control, the T/C [3] was 93 % of control and the T/C [4] was 97 % of control.
`NC1=CC(=O)c2nc(-c3ccccc3N)ccc2C1=O` was tested, and the T/C (dose: 100.0 mg/kg/injection, schedule: Q04DX003 (ip), vehicle: Klucel (hydroxypropylcellulose) (HPC)) was 109 % of control and the T/C (dose: 200.0 mg/kg/injection, schedule: Q04DX003 (ip), vehicle: Klucel (hydroxypropylcellulose) (HPC)) was 105 % of control.
`COc1ccc(C(C#N)C(=O)CCC(=O)C(C#N)c2ccc(OC)c(OC)c2)cc1OC` (stereo unspecified) was tested, and the T/C (dose: 100.0 mg/kg/injection, schedule: Q04DX002 (ip), vehicle: saline with Tween-80) was 106 % of control and the T/C (dose: 200.0 mg/kg/injection, schedule: Q04DX002 (ip), vehicle: saline with Tween-80) was 98 % of control.
`CN1C2=NCCN2C(=O)c2cc(Cl)ccc21` was tested, and the T/C [6] was 105 % of control and the T/C (dose: 100.0 mg/kg/injection, schedule: Q01DX009 (ip), vehicle: Klucel (hydroxypropylcellulose) (HPC)) was 98 % of control.
With `Cc1csc(=S)n1O` the T/C (dose: 60.0 mg/kg/injection, schedule: Q01DX005 (ip), vehicle: saline) was 101 % of control, the T/C (dose: 120.0 mg/kg/injection, schedule: Q01DX005 (ip), vehicle: saline) was 100 % of control and the T/C (dose: 240.0 mg/kg/injection, schedule: Q01DX005 (ip), vehicle: saline) was 101 % of control.
With `CCn1c2ccccc2n2c(=O)c(Cl)c(C)c(C#N)c12` the T/C (dose: 60.0 mg/kg/injection, schedule: Q01DX005 (ip), vehicle: saline with Tween-80) was 100 % of control, the T/C (dose: 120.0 mg/kg/injection, schedule: Q01DX005 (ip), vehicle: saline with Tween-80) was 98 % of control and the T/C (dose: 240.0 mg/kg/injection, schedule: Q01DX005 (ip), vehicle: saline with Tween-80) was 97 % of control.
With `Cc1n(-c2ccccc2)nn[n+]1C` the T/C [7] was 116 % of control and 92 % of control, the T/C [8] was 101 % of control and the T/C [6] was 103 % of control and 91 % of control.
With `CCN1N=Nc2ccccc2C1O` (stereo unspecified) the T/C (dose: 12.5 mg/kg/injection, schedule: Q04DX002 (ip), vehicle: saline) was 98 % of control, the T/C (dose: 25.0 mg/kg/injection, schedule: Q04DX002 (ip), vehicle: saline) was 98 % of control and the T/C (dose: 50.0 mg/kg/injection, schedule: Q04DX002 (ip), vehicle: saline) was 100 % of control.
`COc1cccc2c1C(=O)c1c(O)c3c(c(O)c1C2=O)C[C@@](O)(c1csc(N)n1)C[C@@H]3OC1CC(N)C(O)C(C)O1` (stereo partly specified) was tested, and the T/C (dose: 1.56 mg/kg/injection, schedule: Q01DX009 (ip), vehicle: water) was 150 % of control, the T/C (dose: 6.25 mg/kg/injection, schedule: Q01DX009 (ip), vehicle: water) was 157 % of control and 160 % of control and the T/C (dose: 6.25 mg/kg/injection, schedule: Q04DX003 (ip), vehicle: water) was 96 % of control. For the same compound, the T/C (dose: 12.5 mg/kg/injection, schedule: Q01DX009 (ip), vehicle: water) was 155 % of control and 163 % of control, the T/C (dose: 12.5 mg/kg/injection, schedule: Q04DX003 (ip), vehicle: water) was 105 % of control and 109 % of control and the T/C (dose: 25.0 mg/kg/injection, schedule: Q01DX009 (ip), vehicle: water) was 178 % of control. The T/C (dose: 25.0 mg/kg/injection, schedule: Q04DX003 (ip), vehicle: water) was 118 % of control and the T/C (dose: 100.0 mg/kg/injection, schedule: Q04DX003 (ip), vehicle: water) was 123 % of control.
For `CCN(CC)CCC1CN(C(C)C)CC1(c1ccccc1)c1ccccc1` (stereo unspecified), the T/C [1] was 101 % of control, the T/C [2] was 109 % of control and the T/C (dose: 200.0 mg/kg/injection, schedule: Q01DX009 (ip), vehicle: saline) was 116 % of control.
`C=CCSc1ncnc2nc[nH]c12` was tested, and the T/C (dose: 50.0 mg/kg/injection, schedule: Q01DX009 (ip), vehicle: saline with Tween-80) was 100 % of control, the T/C (dose: 100.0 mg/kg/injection, schedule: Q01DX009 (ip), vehicle: saline with Tween-80) was 109 % of control and the T/C (dose: 100.0 mg/kg/injection, schedule: Q04DX003 (ip), vehicle: saline with Tween-80) was 104 % of control. For the same compound, the T/C (dose: 200.0 mg/kg/injection, schedule: Q04DX003 (ip), vehicle: saline with Tween-80) was 104 % of control.
In the case of `CN(C)CCN(N)CCN(C)C`, the T/C [9] was 94 % of control, the T/C [10] was 105 % of control and the T/C [11] was 100 % of control.
`Cc1cc(=O)oc2cc(NCS(=O)(=O)O)ccc12` was tested, and the T/C [9] was 100 % of control, the T/C [10] was 98 % of control and the T/C [11] was 97 % of control.
In the case of `NC(=O)c1[nH]c(=O)[nH]c(=O)c1CSc1ccc(Cl)cc1`, the T/C (dose: 6.25 mg/kg/injection, schedule: Q01DX005 (ip), vehicle: saline with Tween-80) was 99 % of control, the T/C (dose: 12.5 mg/kg/injection, schedule: Q01DX005 (ip), vehicle: saline with Tween-80) was 97 % of control and the T/C (dose: 25.0 mg/kg/injection, schedule: Q01DX005 (ip), vehicle: saline with Tween-80) was 107 % of control. For the same compound, the T/C (dose: 50.0 mg/kg/injection, schedule: Q01DX005 (ip), vehicle: saline with Tween-80) was 109 % of control and the T/C (dose: 100.0 mg/kg/injection, schedule: Q01DX005 (ip), vehicle: saline with Tween-80) was 111 % of control.
In the case of `CCCN(C)N=Nc1ccccc1C(=O)O`, the T/C (dose: 3.12 mg/kg/injection, schedule: Q01DX009 (ip), vehicle: Klucel (hydroxypropylcellulose) (HPC)) was 111 % of control, the T/C (dose: 6.25 mg/kg/injection, schedule: Q01DX009 (ip), vehicle: Klucel (hydroxypropylcellulose) (HPC)) was 91 % of control and the T/C [7] was 110 % of control. The T/C [8] was 110 % of control and the T/C [6] was 105 % of control.
For `COc1ccc(C2C(C#N)C(=O)N3C(=O)C(NC(C)=O)=C(O)C23)cc1` (stereo unspecified), the T/C (dose: 100.0 mg/kg/injection, schedule: Q01DX001 (ip), vehicle: saline) was 94 % of control, the T/C (dose: 200.0 mg/kg/injection, schedule: Q01DX001 (ip), vehicle: saline) was 95 % of control and the T/C (dose: 400.0 mg/kg/injection, schedule: Q01DX001 (ip), vehicle: saline) was 97 % of control.
